Experiments:
MC3T3-E1 cells = assay: Calcium assay (pro-calcifying activity) on mouse pre-osteoblastic cells; type: cell-based; conditions: for increase in calcification relative to the mineralizing medium: MC3T3-E1, 25 days
Protocol: FIG. 1 represents the calcium dosage in the MC3T3-E1 culture medium (in […] of protein per well) after 9 days of exposure of these cells to 4 mM of Pi ([…]) (control+Pi) and 4 mM of Pi in the presence of 30 μM of each of the compounds referenced DP2SNA, DP2NA, DP2K and DP2S;
For all experiments, a mouse pre-osteoblastic cell line (MC3T3-E1, ATCC) and human primary osteoblastic cells (HOb, Promocell) were used. The mouse pre-osteoblastic cells were cultured in 75 cm^2 flasks, containing 15 mL of α-MEM medium (M4526, SIGMA) and 10% fetal calf serum (FCS), containing 1% Penicillin/Streptomycin antibiotics and 1% glutamine. Similarly, human HOb cells were cultured in 75 cm 2 flasks containing 15 mL of proliferation medium (Human Osteoblast Proliferation Medium, PromoCell). The cells are maintained in the oven at 37° C., with 5% CO2 and 90% humidity. The medium was changed every three days.
MC3T3-E1 cells were seeded in 6-well plates at 63,700 cells/well to be treated in order to extract RNA or for alkaline phosphatase enzymatic activity assay and in 48-well plates for the calcium assay at 5250 cells/well. The HOb cells were seeded at 182,000 cells/well in 6-well plates for the extraction of RNA or for the alkaline phosphatase enzymatic activity assay; at 15,000 cells/well in 48-well plates for the calcium assay; at 10,000 cells/well in 48-well plates for the MTT test or the WST-1 test and at 100,000 cells/well in 6-well plates for the protein extraction or for the fluorescence.
In order to induce the mineralization, the MC3T3-E1 cells were treated with α-MEM medium containing 5% FCS to which 10 mM of β-glycerophosphate and 50 μg/mL of ascorbic acid are added. The HOb cells were treated with the “Osteoblast mineralization medium” (Promocell). […] After filtration, the cells were treated with the respective media (500 μL per well of the 48-well plate and 2 mL per well of the 6-well plate).
The release of calcium in the culture medium of mouse pre-osteoblastic cells (MC3T3-E1) has been studied.
An increase in calcification was observed, relative to the mineralizing medium (FIG. 2), in the presence of DP2R0 at 15 μM (40±2%), at 30 μM (28±18%) and at 50 μM (40±28%), and DP2NA at 15 μM (15±14%), at 30 μM (33±12%) and at 50 μM (10±19%).

HOb cells = assay: Cytotoxicity, WST-1 test; type: cell-based, human; conditions: 30 μM, culture or mineralizing medium, D2, D4, D7, D14
Protocol: The toxicity of DP2 has also been studied by another cell viability test: WST-1 (a tetrazolium salt). The HOb cells were seeded in 48-well plates (10,000 cells per well), two days later, the cells were treated with DP2 30 μM and the WST-1 test was carried out on D2, D4, D7 and D14 post-treatment.
At the end of the treatment, 100 μl of the diluted WST-1 solution (Roche Diagnostics) was added to each well and the plate is incubated at 37° C. with 5% CO2 for 1 h. The cell proliferation induces an increase in the activity of mitochondrial dehydrogenases, which cleaves the tetrazolium salt into formazan. The amount of formazan dye was quantified by measuring the absorbance of dye at 450 nm (Envision, PerkinElmer). The results are expressed as percentage of viability in comparison to the untreated control condition.
Before determining whether our molecule alters the survival of osteoblastic cells, its cytotoxicity was tested on the HOb cells by the MTT and WST-1 tests. The cells were treated with DP2 at 30 μM with the culture medium (Ctrl) or the mineralizing medium (Min) for 2, 4, 7 and 14 days (D).

[1] = Acetate migration DP2/DP2′ in solution (stability); type: physicochemical; conditions: in methanol
Protocol: The compound DP2′ was extracted from the DP2-DP2′ mixture which is formed when the compound DP2 is dissolved in water. The compound DP2′ has been separated by preparative HPLC chromatography with water as elution solvent.
The inventors have observed that when the compound DP2′ was in water, the delocalization of the acetate group was also present, but with very slow kinetics compared to the DP2→DP2′ reaction. Thus, a solution of DP2′ in water which is left to rest contains, after 44 days, 10 to 15% of DP2. The DP2′ therefore remains alone in the water for a given duration which is quite long. It is therefore possible to test the biological effect of DP2′ in solution in water.
Similarly, the inventors have observed that the kinetics of the DP2→DP2′ reaction is such that it is also possible to test the biological activity of the compound DP2 alone after extraction of the formed compound DP2′. Thus, the two compounds DP2 and DP2′ can coexist or not in water for a given duration.
In methanol, for example, the compound DP2 is therefore alone.
There is about ⅔ of DP2R2 for ⅓ of DP2′. The compound DP2′ comes from a migration of the acetate group (R2) on the 30H position. The compound DP2′ could be isolated and synthesized as previously indicated. […]

CCCO[C@H]1OC(CO)[C@@H](O[C@@H]2OC(CO)[C@@H](O)C(O)C2NC(C)=O)C(O)C1OC(C)=O (stereo partly drawn) [DP2, n-propyl, 2-O-acetyl-α-D-Glucopyranoside, 4-O-(2-acetamido-2-deoxy-β-D-glucopyranosyl)]
production of calcium by the MC3T3-E1 cells (calcium dosage in culture medium) (MC3T3-E1 cells; 9 days, 4 mM Pi, 30 μM compound, vs control+Pi (FIG. 1)): increase the production of calcium
increase in calcification relative to the mineralizing medium (MC3T3-E1 cells; 15 μM): 40±2%
increase in calcification relative to the mineralizing medium (MC3T3-E1 cells; 30 μM): 28±18%
increase in calcification relative to the mineralizing medium (MC3T3-E1 cells; 50 μM): 40±28%
cell viability, WST-1 test (HOb cells): no significant difference
delocalization of the acetate group [1]: no delocalization of the acetate group has been observed

From patent US20240083933A1, “DISACCHARIDES FOR TREATING BONE DISEASES” (UNIVERSITE DE PICARDIE JULES VERNE, priority 2020, published 2024)
